Reference: PMC10761937, “Functional engineering of human iPSC‐derived parasympathetic neurons enhances responsiveness to gastrointestinal hormones” (FEBS Open Bio, 2023)
Where no end group is shown, it is not given here.

Tests used:
[1] = test system: HTR3A; assay: Ca^2+ imaging, HTR3A‐HEK293T cells; format: cell-based, human; conditions: Fluo‐8 AM, Ringer's solution pH 7.4, ΔF/F 0, n = 10
Method: (§1) HEK293T cells (Lenti‐X 293T Cell line; TaKaRa, Shiga, Japan) were maintained in Dulbecco's Modified Eagle Medium (DMEM; Fujifilm Wako Pure Chemical Industries, Osaka, Japan) supplemented with 10% fetal bovine serum (Biowest, Nuaillé, France), 1% non‐essential amino acids (NEAA) (Fujifilm Wako Pure Chemical Industries), and 1% penicillin–streptomycin (P/S) (Fujifilm Wako Pure Chemical Industries) and cultured in non‐coated culture plates at 37 °C and in an incubator with 5% CO2. The culture medium was replaced every 2–3 days. At 80–90% confluence, the cell colonies were digested into single cells using TrypLE Express (Thermo Fisher Scientific). The resulting cells were used for lentiviral transfection and agonist experiments.
(§2) Figure S1 presents the protocol used for this experiment. Lentiviral vectors were acquired from VectorBuilder (VectorBuilder Japan, Inc., Kanagawa, Japan). […]
(§3) Transduced HEK293T and neurons were incubated with 10 μM Fluo‐8 AM, a calcium indicator (AAT Bioquest, Pleasanton, CA, USA), in each culture medium (Cell lines and cell culture and Induction to parasympathetic neurons sections) at 37 °C for 30 min. […] Fluorescence (excitation: 490 nm, emission: 525 nm) was detected using a confocal spinning disk confocal laser scanning unit (CSU‐W1; Yokogawa Electric, Tokyo, Japan) and an LED light (X‐Cite 120LED; Opto Science, Tokyo, Japan). […]

[2] = test system: HTR3A‐neurons; assay: Ca^2+ imaging, directly transduced HTR3A‐neurons; format: cell-based, human; conditions: 100 μM 5‐HT; HTR3A‐neurons (transduced during differentiation) day 35; Fluo‐8 AM; n = 20; Student's t‐test vs. 0 μM
Method: (§4) Before initiating differentiation, the iPSCs (1–2 × 10^5 cells·cm^−2; Cell lines and cell culture section) were transferred to 6‐well plates (Corning, Inc., Corning, NY, USA) coated with 2‐methacryloyloxyethyl phosphorylcholine (MPC) polymer (Lipidure CM5206E; NOF, Tokyo, Japan). The cells were maintained in mTeSR1 cGMP medium containing 10 μM Y‐27632 (Fujifilm Wako Pure Chemical Industries) for 2 or 3 days to form embryoid body (EBs) in a rotary shaker at 95 r.p.m. (OS‐762RC; Optime, Tokyo, Japan). Subsequently, iPSCs were differentiated into neural crest cells (NCCs), as previously reported. Briefly, NCCs were induced from Ebs using knockout serum replacement (KSR) medium and N2 medium with graded addition of nerve growth factors and signaling factors. KSR medium was composed of DMEM‐F12 (Fujifilm Wako Pure Chemical Industries), 20% KSR (Thermo Fisher Scientific), 1% NEAA, 1% monothioglycerol (Fujifilm Wako Pure Chemical Industries), and 1% P/S. N2 medium consisted of DMEM‐F12, 1% N2 supplement (Fujifilm Wako Pure Chemical Industries), 1% NEAA, and 1% P/S. When EB formation was considered day 0 of induction, the medium was changed at days 2, 5, 7, 9, and 12. […]

[3] = test system: rat nodal ganglion cells; conditions: various concentrations; ref [31], [32], [33], [34]; cited from earlier work
Source text: Previous reports indicate that rat nodal ganglion cells respond to various concentrations of hormones, including CCK, GLP1, PYY, and 5‐HT [31, 32, 33, 34]. […] However, it is noteworthy that the overexpression of these receptors in our model may not reconstruct natural expres ...

[4] = test system: GLP2R; assay: Ca^2+ imaging, GLP2R‐HEK293T cells; format: cell-based, human; conditions: Fluo‐8 AM, Ringer's solution pH 7.4, ΔF/F 0, n = 20
Method: as §1, §2, §3

[5] = test system: GLP2R‐neurons; assay: Ca^2+ imaging, directly transduced GLP2R‐neurons; format: cell-based, human; conditions: 100 nM GLP2; GLP2R‐neurons (transduced during differentiation) day 35; Fluo‐8 AM; n = 20
Method: as §4

[6] = test system: CCKAR; assay: Ca^2+ imaging, CCKAR‐HEK293T cells; format: cell-based, human; conditions: Fluo‐8 AM, Ringer's solution pH 7.4, ΔF/F 0, n = 10, Dunnett's test vs. 0 nM
Method: as §1, §2, §3

[7] = test system: CCKAR‐neurons; assay: Ca^2+ imaging, CCKAR‐neurons (iPSC‐derived); format: cell-based, human; conditions: 100 nM CCK‐33; CCKAR‐neurons day 35; Fluo‐8 AM; ΔF stim/F 0; n = 20; Student's t‐test vs. 0 nM
Method: as §4

[8] = test system: CCKAR‐neurons; assay: MEA recording of neuronal firing, CCKAR‐neurons; format: cell-based, human; conditions: 100 nM vs. 0 nM CCK‐33: P = 0.018; day 27; 0 nM n = 128 electrodes, 100 nM n = 57 electrodes; 5 min before and after ligand addition
Method: as §4

## NCCc1c[nH]c2ccc(O)cc12 [5‐HT, 5‐hydroxytryptamine]
[1]
  Concentration giving response (intracellular Ca^2+ concentration): > 10 µM
[2]
  Intracellular Ca^2+ concentration: increased intracellular Ca^2+ concentration
[3]
  Response of rat nodal ganglion cells: respond

## GLP2: GLP2 (4276‐v; Peptide Institute, Inc.) (HADGSFSDEMNTILDNLAARDFINWLIQTKITD; Glucagon-like peptide 2; UniProt P01275 146-178, looked up)
[4]
  Concentration giving response (Ca^2+ imaging): > 100 nM
[5]
  Percentage change in fluorescence intensity: 3%
  Response in Ca^2+ imaging: responded slightly

## CCK‐33: CCK‐33 (4201‐s; Peptide Institute, Inc.) (KAPSGRMSIVKNLQNLDPSHRISDRDYMGWMDF; ends and bridges not checked; UniProt P06307 71-103, looked up)
[6]
  Concentration giving response (change in intracellular Ca^2+ concentration): > 100 nM
[7]
  Intracellular Ca^2+ concentration: significantly increased the intracellular Ca^2+ concentration
[8]
  Neuronal firing frequency change rate: significantly increased the neuronal firing frequency change rate

## CCK‐8: CCK‐Octapeptide (26–33) (CCK‐8) (4100‐v; Peptide Institute, Inc.) (DYMGWMDF; ends and bridges not checked; UniProt P06307 96-103, looked up)
[6]
  Concentration giving response (change in intracellular Ca^2+ concentration): > 10 nM
